A short description of test [1]: cells. The conditions noted are these: Homo sapiens, U87MG Human EGFR vIII, 72 h.
Description: Antiproliferative activity against human U87vIII cells expressing EGFRvIII incubated for 72 hrs by MTT assay
Test [2] concerns U-87 MG. Description: cells. The conditions noted are these: Homo sapiens, 72 h.
Description: Antiproliferative activity against human U-87 MG cells incubated for 72 hrs by MTT assay
Test [3] can be described thus: cells. The conditions noted are these: GL261, 72 h.
Description: Antiproliferative activity against human GL261 cells incubated for 72 hrs by MTT assay
Test [4] deals with U-251. Put plainly: cells. The conditions noted are these: Homo sapiens, U-251, 72 h.
Description: Antiproliferative activity against human U-251 cells incubated for 72 hrs by MTT assay
The target of test [5] is Programmed cell death protein 1/Programmed cell death 1 ligand 1 (Homo sapiens, UniProt Q9NZQ7). Put plainly: Inhibition of PD-1/PD-L1 (unknown origin) interaction assessed as inhibition rate incubated for 1 hr by HTRF assay relative to control. It counts as protein-complex assay.
Test [6] deals with Glioblastoma cell line. Put plainly: Antitumor immunity against glioblastoma bearing C57BL/6 mouse model assessed as tumor infiltrating lymphocytes by measuring increase in CD3+CD4+T cells at 100 mg/kg, IG (reference value: 0.91%). In kind it is functional.
Test [7] concerns Glioblastoma cell line. Put plainly: Antitumor immunity against glioblastoma bearing C57BL/6 mouse model assessed as tumor infiltrating lymphocytes by measuring increase in CD3+CD8+T cells at 100 mg/kg, IG (reference value: 3.44%). It counts as functional.
The nature of test [8]: In vivo antitumor activity against […] GL261 cells xenografted in C57BL/6 mouse assessed as decrease in tumor volume at 100 mg/kg, IG treated for 21 days relative to control. It counts as functional. Also on record: scale not given: the % may be the effect or the level left. The conditions noted are these: time 21 day.
The nature of test [9]: In vivo antitumor activity against […] GL261 cells xenografted in C57BL/6 mouse assessed as decrease in tumor weight at 100 mg/kg, IG treated for 21 days relative to control. In kind it is functional. Also on record: scale not given: the % may be the effect or the level left. The note with it: time 21 day. On the technique in general: In xenograft studies the graft and the host belong to different species.

A short description of test [10]: In vivo antitumor activity against […] GL261 cells xenografted in C57BL/6 mouse assessed as decrease in PD-L1 expression in tumor tissue at 100 mg/kg, IG treated for 21 days relative to control. In kind it is functional. Further details: scale not given: the % may be the effect or the level left. The conditions noted are these: time 21 day.
Test [11] in a line: In vivo antitumor activity against […] GL261 cells xenografted in C57BL/6 mouse assessed as decrease in EGFR phosphorylation in tumor tissue at 100 mg/kg, IG treated for 21 days relative to control. In kind it is functional. Also on record: scale not given: the % may be the effect or the level left. The conditions noted are these: time 21 day.

Sequence of Programmed cell death protein 1/Programmed cell death 1 ligand 1 (Q15116 whole entry): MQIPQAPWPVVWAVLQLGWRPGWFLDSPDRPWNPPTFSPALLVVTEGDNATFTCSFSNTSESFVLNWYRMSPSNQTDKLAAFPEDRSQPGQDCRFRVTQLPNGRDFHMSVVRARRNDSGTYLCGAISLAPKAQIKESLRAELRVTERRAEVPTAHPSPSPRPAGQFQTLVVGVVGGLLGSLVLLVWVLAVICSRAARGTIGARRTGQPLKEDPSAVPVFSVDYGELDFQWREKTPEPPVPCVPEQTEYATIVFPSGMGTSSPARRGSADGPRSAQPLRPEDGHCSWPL
Sequence of Programmed cell death protein 1/Programmed cell death 1 ligand 1 (Q9NZQ7 whole entry): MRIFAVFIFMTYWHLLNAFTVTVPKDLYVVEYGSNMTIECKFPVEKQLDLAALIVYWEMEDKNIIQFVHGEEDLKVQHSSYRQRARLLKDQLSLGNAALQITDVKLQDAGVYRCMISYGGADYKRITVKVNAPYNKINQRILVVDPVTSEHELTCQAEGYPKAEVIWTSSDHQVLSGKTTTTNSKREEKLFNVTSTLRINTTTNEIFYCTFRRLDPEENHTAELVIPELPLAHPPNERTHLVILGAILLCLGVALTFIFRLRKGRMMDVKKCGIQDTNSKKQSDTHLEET

As a reminder, the IC50 is the concentration that inhibits the measured activity by half. `COc1cc2ncnc(Nc3ccc(F)c(Cl)c3)c2cc1OCCCCCCNC(=O)C1CCCCN1Cc1ccc(OCc2cccc(-c3ccccc3)c2C)c(C)c1` (configuration not stated): the IC50 in [1], in test [2], in test [3] and in test [4] was more than 20 µM in each case.

In the case of `COc1cc2ncnc(Nc3ccc(F)c(Cl)c3)c2cc1OCCCCCNC(=O)CN(C)Cc1c(OC)cc(OCc2cccc(-c3ccccc3)c2C)cc1OC`, the IC50 in [1] was 3.12 µM; in test [2], 5.16 µM; in [3], more than 20 µM; in test [4], more than 20 µM.

For `COc1nc(OCc2cccc(-c3ccccc3)c2C)ccc1CNCCNC(C)=O`, the IC50 in [1] was 8.03 µM; in [2], 3.72 µM; in test [3], 5.72 µM; in test [4], 2.98 µM.

Take `Cc1c(COc2cc(OCc3cccc(C#N)c3)c(CNC(C)(C)C(=O)O)cc2Cl)cccc1-c1ccccc1`: the IC50 in test [1] is more than 20 µM; in test [5], 0.0562 µM; in [2], more than 20 µM; in test [3], more than 20 µM; in test [4], more than 20 µM. Besides, the Activity in test [6] is 24.7%; in test [7], 19.7%; in test [8], 71.1%; in test [9], 77.2%.

In the case of `COc1cc2ncnc(Nc3ccc(F)c(Cl)c3)c2cc1OCCCCCCCCNC(=O)CN(C)Cc1c(OC)cc(OCc2cccc(-c3ccccc3)c2C)cc1OC`, the IC50 in test [1], in test [2], in test [3] and in [4] was more than 20 µM throughout.

For `COc1cc2ncnc(Nc3ccc(F)c(Cl)c3)c2cc1OCCCCCCNC(=O)C1CCCCN1Cc1c(OC)cc(OCc2cccc(-c3ccccc3)c2C)cc1OC` (configuration not stated), the IC50 in [1], in test [2], in test [3] and in test [4] was more than 20 µM each time.

For the compound `COc1cc2ncnc(Nc3ccc(F)c(Cl)c3)c2cc1OCCCCNCc1c(OC)cc(OCc2cccc(-c3ccccc3)c2C)cc1OC`, the IC50 in test [1] was found to be 0.36 µM; in test [2] it was 0.86 µM; in test [3] it was 1.79 µM; in test [4] it was 1.33 µM.

On to `COc1cc2ncnc(Nc3ccc(F)c(Cl)c3)c2cc1OCCNCc1c(OC)cc(OCc2cccc(-c3ccccc3)c2C)cc1OC`, for which the IC50 in test [1] came out at 2.84 µM; in [2], 3.33 µM; in test [3] it was 3.22 µM; in test [4] it was 1.96 µM.

On to `COc1cc2ncnc(Nc3ccc(F)c(Cl)c3)c2cc1OCCNCc1ccc(-c2cccc(-c3ccccc3)c2C)nc1OC`, for which the IC50 in test [1] came to 1.14 µM; in test [2], 5.76 µM; in [3], 6.86 µM; in test [4] it was 2.64 µM.

Turning to `COc1cc2ncnc(Nc3ccc(F)c(Cl)c3)c2cc1OCCCNCc1ccc(-c2cccc(-c3ccccc3)c2C)nc1OC`, the IC50 in test [1] amounted to 0.82 µM; in [2] it was 1.08 µM; in test [3] it was 2.63 µM; in test [4], 5.12 µM.

In the case of `COc1cc2ncnc(Nc3ccc(F)c(Cl)c3)c2cc1OCCCCCCNC(=O)CCN(C)Cc1ccc(-c2cccc(-c3ccccc3)c2C)nc1OC`, the IC50 in [1], in test [2], in test [3] and in test [4] was more than 20 µM in each case.

As for `COc1cc2ncnc(Nc3ccc(F)c(Cl)c3)c2cc1OCCCN1CCOCC1` [GEFITINIB], the Activity in [10] is given as approximately 15%; in [8], 71.2%; in [11], approximately 30%; in test [9] it was 77.2%.

Turning to `COc1cc(OCc2cccc(-c3ccccc3)c2C)ccc1CNCCCCOc1cc2c(Nc3cccc(Cl)c3F)ncnc2cc1OC`, the IC50 stood at 0.29 µM in test [1], 0.84 µM in test [2], 1.24 µM in test [3] and 1.29 µM in test [4].

For `COc1cc2ncnc(Nc3ccc(F)c(Cl)c3)c2cc1OCCCCCCNCc1c(OC)cc(OCc2cccc(-c3ccccc3)c2C)cc1OC`, the IC50 in test [1] came to 0.54 µM; in test [2], 2.85 µM; in [3], 2.76 µM; in test [4], 1.55 µM.

For the compound `COc1cc2ncnc(Nc3ccc(F)c(Cl)c3)c2cc1OCCCCNCc1ccc(OCc2cccc(-c3ccccc3)c2C)c(C)c1`, the IC50 was 0.73 µM in test [1], 0.89 µM in [2], 2.25 µM in test [3] and 1.38 µM in [4].

With `COc1cc2ncnc(Nc3ccc(F)c(Cl)c3)c2cc1OC(=O)N1CCN(Cc2ccc(-c3cccc(-c4ccccc4)c3C)nc2OC)CC1`, the IC50 in [1], in test [2], in [3] and in test [4] was more than 20 µM each time.

On to `COc1cc(OCc2cccc(-c3ccccc3)c2C)ccc1CNCCCCOc1cc2c(Nc3ccc(F)c(Cl)c3)ncnc2cc1OC`, for which the 50% inhibitory concentration (IC50) in [1] is 0.8 µM; in test [2], 2.6 µM; in [3], 1.97 µM; in [4] it was 1.47 µM.

On to `COc1cc2ncnc(Nc3ccc(F)c(Cl)c3)c2cc1OCCCCCNCc1ccc(-c2cccc(-c3ccccc3)c2C)nc1OC`, for which the IC50 in test [1] is 0.53 µM; in test [2] it was 3.38 µM; in test [3], 2.16 µM; in test [4], 1.35 µM.

For `COc1cc(OCc2cccc(-c3ccccc3)c2C)ccc1CNCCCOc1cc2c(Nc3ccc(F)c(Cl)c3)ncnc2cc1OC`, the IC50 in [1] stood at 0.96 µM; in test [2] it was 4.01 µM; in [3], 5.46 µM; in test [4], 3.49 µM.

Turning to `COc1cc2ncnc(Nc3ccc(F)c(Cl)c3)c2cc1OC(=O)N1CCN(Cc2c(OC)cc(OCc3cccc(-c4ccccc4)c3C)cc2OC)CC1`, the IC50 in test [1], in test [2], in [3] and in [4] was more than 20 µM in each case.

On to `COc1cc2ncnc(Nc3ccc(F)c(Cl)c3)c2cc1OCCCCCCCCNCc1ccc(-c2cccc(-c3ccccc3)c2C)nc1OC`, for which the IC50 stood at 2.01 µM in [1], 1.15 µM in test [2], 3.3 µM in test [3] and 3.53 µM in test [4].

Turning to `COc1cc2ncnc(Nc3ccc(F)c(Cl)c3)c2cc1OCCCNCc1c(OC)cc(OCc2cccc(-c3ccccc3)c2C)cc1OC`, the IC50 in test [1] is 1.39 µM; in [2], 1.06 µM; in [3], 2.39 µM; in [4], 1.47 µM.

`COc1cc2ncnc(Nc3ccc(F)c(Cl)c3)c2cc1OCCCCCCNCc1ccc(-c2cccc(-c3ccccc3)c2C)nc1OC`: the IC50 in test [1] was determined as 0.73 µM; in test [2], 1.08 µM; in [3], 3.25 µM; in [4], 1.87 µM.

On to `COc1cc2ncnc(Nc3ccc(F)c(Cl)c3)c2cc1OCCCCCNC(=O)C1CCCCN1Cc1c(OC)cc(OCc2cccc(-c3ccccc3)c2C)cc1OC` (configuration not stated), for which the IC50 in test [1], in [2], in [3] and in test [4] was more than 20 µM in each case.

`COc1cc2ncnc(Nc3ccc(F)c(Cl)c3)c2cc1OCCCCNCc1ccc(-c2cccc(-c3ccccc3)c2C)nc1OC`: the IC50 in test [1] was 2.61 µM; in [2], 1.03 µM; in test [3], 2.72 µM; in test [4] it was 2.85 µM.

Regarding `COc1cc2ncnc(Nc3ccc(F)c(Cl)c3)c2cc1OCCCCCNC(=O)C1CCCCN1Cc1ccc(-c2cccc(-c3ccccc3)c2C)nc1OC` (configuration not stated), the IC50 in test [1], in test [2], in test [3] and in [4] was more than 20 µM in each case.

Take `COc1cc2ncnc(Nc3ccc(F)c(Cl)c3)c2cc1OCCCCCNCc1c(OC)cc(OCc2cccc(-c3ccccc3)c2C)cc1OC`: the IC50 stood at 0.44 µM in test [1], 1.35 µM in test [2], 2.24 µM in test [3] and 1.04 µM in test [4].

Turning to `COc1cc2ncnc(Nc3ccc(F)c(Cl)c3)c2cc1OCCCCNC(=O)C1CCCCN1Cc1ccc(-c2cccc(-c3ccccc3)c2C)nc1OC` (configuration not stated), the IC50 in test [1], in test [2], in test [3] and in test [4] was more than 20 µM each time.

These data come from ChEMBL document CHEMBL5506049, “Discovery of Novel Small-Molecule-Based Potential PD-L1/EGFR Dual Inhibitors with High Druggability for Glioblastoma Immunotherapy” (J Med Chem, 2024).
